The values below are quoted from earlier work in patent US6479541B1, “Amiodarone-containing parenteral administration” (Baxter International, priority 2000, dated 2002).

The conditions of the series: dogs, intravenous; literature Gough et al. 1982.

As for polysorbate 80 [Tween 80], the cardiodepression / hypotension result is “associated with cardiodepression, causing hypotension”.
